# Experimental data from ChEMBL document CHEMBL4431334, “Occupying a flat subpocket in a tRNA-modifying enzyme with ordered or disordered side chains: Favorable or unfavorable for binding?” (Bioorg Med Chem, 2016).
# Columns and labels:
# [1] = Binding affinity to Zymomonas mobilis tRNA guanine transglycosylase assessed as inhibition of [8-3H]guanine incorporation into Escherichia coli tRNA Tyr at position G34 preincubated for 10 mins followed by tRNA Tyr/[8-3H]guanine addition measured after 30 mins by liquid scintillation counting
# [2] = Binding affinity to Zymomonas mobilis tRNA guanine transglycosylase by isothermal titration calorimetry
SMILES,Ki [1] [nM],Kd [2] [nM]
Nc1nc2cc3nc(NCCc4ccccc4)[nH]c3cc2c(=O)[nH]1,10,56.6
N#Cc1ccc(CCNc2nc3cc4nc(N)[nH]c(=O)c4cc3[nH]2)cc1,21,–
Nc1nc2cc3nc(NCCc4ccc(CCO)cc4)[nH]c3cc2c(=O)[nH]1,7,–
COC(=O)c1ccc(CCNc2nc3cc4nc(N)[nH]c(=O)c4cc3[nH]2)cc1,2,–
Nc1nc2cc3nc(NCCc4ccc(C(=O)O)cc4)[nH]c3cc2c(=O)[nH]1,30,29.8
